Where two headings read alike, the source gives them in different places. Each block holds one compound with its values, some of them ahead of it.
Key:
Test in all cases: biochemical
Set-up in all cases: DiscoveRx KINOMEscan active site-directed competition binding; percent of control kinase bound to immobilised ligand
MET(Y1235D) = MET(Y1235D) (Homo sapiens, UniProt P08581, Y1235D)
SRMS = SRMS (Homo sapiens, UniProt Q9H3Y6)
MRCKB = biological target: T1, MRCKB (Homo sapiens, UniProt Q9Y5S2)
T1 construct: gene CDC42BPB

[1] = biological target: T2, ABL1(H396P)-nonphosphorylated (Homo sapiens, UniProt P00519, H396P)
T2 construct: nonphosphorylated

DMPK = biological target: T3, DMPK (Homo sapiens, UniProt Q09013)
T3 sequence (Q09013 1-629): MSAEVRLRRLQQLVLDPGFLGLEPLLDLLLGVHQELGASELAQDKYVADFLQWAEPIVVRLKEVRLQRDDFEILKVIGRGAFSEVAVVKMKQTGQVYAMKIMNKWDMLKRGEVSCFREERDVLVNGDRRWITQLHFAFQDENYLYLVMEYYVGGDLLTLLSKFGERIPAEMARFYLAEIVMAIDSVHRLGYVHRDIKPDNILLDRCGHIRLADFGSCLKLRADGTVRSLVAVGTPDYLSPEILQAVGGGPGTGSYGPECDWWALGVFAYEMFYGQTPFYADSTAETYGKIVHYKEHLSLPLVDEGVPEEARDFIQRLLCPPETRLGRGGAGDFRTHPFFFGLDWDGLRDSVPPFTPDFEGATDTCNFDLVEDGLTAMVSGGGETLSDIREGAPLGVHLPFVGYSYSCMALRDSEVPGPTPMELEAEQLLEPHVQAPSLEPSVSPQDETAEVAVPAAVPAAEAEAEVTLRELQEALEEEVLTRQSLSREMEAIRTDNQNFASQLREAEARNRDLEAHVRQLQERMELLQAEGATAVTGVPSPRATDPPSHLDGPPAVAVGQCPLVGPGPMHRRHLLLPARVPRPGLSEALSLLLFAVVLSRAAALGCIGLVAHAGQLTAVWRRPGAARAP

FLT3(K663Q) = biological target: T4, FLT3(K663Q) (Homo sapiens, UniProt P36888, K663Q)
T4 sequence (P36888 1-993 K663Q): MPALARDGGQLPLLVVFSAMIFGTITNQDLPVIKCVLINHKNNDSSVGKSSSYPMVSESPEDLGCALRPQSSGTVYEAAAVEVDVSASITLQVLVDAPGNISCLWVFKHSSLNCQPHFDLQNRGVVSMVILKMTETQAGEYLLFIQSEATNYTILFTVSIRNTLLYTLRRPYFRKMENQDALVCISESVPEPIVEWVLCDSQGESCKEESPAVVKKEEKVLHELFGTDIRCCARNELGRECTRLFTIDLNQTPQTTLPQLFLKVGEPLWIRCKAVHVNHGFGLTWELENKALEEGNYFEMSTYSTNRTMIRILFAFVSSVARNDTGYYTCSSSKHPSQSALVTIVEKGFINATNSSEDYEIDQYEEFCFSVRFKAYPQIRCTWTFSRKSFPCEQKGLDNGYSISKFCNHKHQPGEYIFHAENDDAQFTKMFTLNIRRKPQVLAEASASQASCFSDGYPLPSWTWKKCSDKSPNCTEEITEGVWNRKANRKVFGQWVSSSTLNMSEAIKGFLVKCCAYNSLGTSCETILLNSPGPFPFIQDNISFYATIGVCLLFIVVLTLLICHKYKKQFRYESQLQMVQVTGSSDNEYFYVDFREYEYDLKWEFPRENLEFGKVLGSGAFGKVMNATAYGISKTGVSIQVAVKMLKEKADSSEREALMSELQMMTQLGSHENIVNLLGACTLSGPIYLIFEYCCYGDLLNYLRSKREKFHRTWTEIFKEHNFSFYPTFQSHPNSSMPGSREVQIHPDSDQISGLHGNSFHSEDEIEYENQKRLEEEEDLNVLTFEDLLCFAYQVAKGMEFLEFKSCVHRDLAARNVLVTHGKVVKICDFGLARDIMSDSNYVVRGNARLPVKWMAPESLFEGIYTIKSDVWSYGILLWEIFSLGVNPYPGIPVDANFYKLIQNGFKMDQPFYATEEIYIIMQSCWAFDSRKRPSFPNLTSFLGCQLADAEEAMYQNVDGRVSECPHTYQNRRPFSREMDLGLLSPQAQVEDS

WNK3 = WNK3 (Homo sapiens, UniProt Q9BYP7)
DAPK2 = DAPK2 (Homo sapiens, UniProt Q9UIK4)
[2] = read-out: Niraparib (MK-4827) / %Ctrl @ 10000nM
[3] = read-out: Rucaparib / %Ctrl @ 10000nM, binding competition, % of control
[4] = read-out: Olaparib / %Ctrl @ 10000nM
[5] = read-out: Talazoparib (BMN 673) / %Ctrl @ 10000nM

Sequence of WNK3 (Q9BYP7 whole entry): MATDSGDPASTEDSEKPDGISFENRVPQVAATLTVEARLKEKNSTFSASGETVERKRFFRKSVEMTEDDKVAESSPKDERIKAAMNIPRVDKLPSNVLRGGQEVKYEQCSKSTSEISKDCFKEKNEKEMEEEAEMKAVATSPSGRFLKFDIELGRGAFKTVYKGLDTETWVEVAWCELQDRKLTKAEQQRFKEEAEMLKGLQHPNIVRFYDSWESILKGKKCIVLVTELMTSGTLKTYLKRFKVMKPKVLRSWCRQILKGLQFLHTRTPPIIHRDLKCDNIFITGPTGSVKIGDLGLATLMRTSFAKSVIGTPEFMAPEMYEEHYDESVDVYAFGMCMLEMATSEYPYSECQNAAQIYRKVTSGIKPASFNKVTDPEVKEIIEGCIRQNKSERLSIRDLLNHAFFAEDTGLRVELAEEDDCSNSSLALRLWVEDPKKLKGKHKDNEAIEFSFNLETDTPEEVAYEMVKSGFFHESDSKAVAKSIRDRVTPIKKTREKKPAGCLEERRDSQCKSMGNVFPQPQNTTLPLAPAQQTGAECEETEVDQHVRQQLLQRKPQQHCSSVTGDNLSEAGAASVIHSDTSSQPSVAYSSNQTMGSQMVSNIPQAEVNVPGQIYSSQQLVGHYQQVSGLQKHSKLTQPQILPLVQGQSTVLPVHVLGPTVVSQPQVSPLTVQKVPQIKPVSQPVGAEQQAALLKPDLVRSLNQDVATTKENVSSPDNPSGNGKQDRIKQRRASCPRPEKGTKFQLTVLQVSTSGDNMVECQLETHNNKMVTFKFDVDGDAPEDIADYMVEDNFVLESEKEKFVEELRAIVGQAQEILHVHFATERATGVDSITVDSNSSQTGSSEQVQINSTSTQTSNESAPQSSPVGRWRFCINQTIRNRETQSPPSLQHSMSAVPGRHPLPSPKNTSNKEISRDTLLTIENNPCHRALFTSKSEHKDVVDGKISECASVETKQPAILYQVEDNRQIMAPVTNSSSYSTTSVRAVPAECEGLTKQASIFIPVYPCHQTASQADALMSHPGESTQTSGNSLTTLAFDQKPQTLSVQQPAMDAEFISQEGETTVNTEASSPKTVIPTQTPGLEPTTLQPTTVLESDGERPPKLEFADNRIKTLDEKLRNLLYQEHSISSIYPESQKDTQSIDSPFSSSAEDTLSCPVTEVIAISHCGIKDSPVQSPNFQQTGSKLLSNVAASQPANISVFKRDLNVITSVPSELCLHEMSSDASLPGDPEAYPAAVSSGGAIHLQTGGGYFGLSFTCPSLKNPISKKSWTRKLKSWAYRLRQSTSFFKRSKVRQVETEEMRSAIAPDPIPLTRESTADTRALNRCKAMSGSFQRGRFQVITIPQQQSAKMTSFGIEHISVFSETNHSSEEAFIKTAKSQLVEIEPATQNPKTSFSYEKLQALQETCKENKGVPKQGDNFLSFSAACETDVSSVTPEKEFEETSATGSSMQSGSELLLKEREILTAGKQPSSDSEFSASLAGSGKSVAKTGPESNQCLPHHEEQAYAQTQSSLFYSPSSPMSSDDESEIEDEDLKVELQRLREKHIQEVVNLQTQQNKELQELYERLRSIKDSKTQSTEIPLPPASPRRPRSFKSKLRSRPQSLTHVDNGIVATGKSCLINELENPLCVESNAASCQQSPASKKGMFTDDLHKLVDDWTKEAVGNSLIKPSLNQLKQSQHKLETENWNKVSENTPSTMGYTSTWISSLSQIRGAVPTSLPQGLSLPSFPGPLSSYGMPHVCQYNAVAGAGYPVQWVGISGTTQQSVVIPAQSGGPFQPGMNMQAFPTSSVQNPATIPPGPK
T1 sequence (Q9Y5S2 whole entry): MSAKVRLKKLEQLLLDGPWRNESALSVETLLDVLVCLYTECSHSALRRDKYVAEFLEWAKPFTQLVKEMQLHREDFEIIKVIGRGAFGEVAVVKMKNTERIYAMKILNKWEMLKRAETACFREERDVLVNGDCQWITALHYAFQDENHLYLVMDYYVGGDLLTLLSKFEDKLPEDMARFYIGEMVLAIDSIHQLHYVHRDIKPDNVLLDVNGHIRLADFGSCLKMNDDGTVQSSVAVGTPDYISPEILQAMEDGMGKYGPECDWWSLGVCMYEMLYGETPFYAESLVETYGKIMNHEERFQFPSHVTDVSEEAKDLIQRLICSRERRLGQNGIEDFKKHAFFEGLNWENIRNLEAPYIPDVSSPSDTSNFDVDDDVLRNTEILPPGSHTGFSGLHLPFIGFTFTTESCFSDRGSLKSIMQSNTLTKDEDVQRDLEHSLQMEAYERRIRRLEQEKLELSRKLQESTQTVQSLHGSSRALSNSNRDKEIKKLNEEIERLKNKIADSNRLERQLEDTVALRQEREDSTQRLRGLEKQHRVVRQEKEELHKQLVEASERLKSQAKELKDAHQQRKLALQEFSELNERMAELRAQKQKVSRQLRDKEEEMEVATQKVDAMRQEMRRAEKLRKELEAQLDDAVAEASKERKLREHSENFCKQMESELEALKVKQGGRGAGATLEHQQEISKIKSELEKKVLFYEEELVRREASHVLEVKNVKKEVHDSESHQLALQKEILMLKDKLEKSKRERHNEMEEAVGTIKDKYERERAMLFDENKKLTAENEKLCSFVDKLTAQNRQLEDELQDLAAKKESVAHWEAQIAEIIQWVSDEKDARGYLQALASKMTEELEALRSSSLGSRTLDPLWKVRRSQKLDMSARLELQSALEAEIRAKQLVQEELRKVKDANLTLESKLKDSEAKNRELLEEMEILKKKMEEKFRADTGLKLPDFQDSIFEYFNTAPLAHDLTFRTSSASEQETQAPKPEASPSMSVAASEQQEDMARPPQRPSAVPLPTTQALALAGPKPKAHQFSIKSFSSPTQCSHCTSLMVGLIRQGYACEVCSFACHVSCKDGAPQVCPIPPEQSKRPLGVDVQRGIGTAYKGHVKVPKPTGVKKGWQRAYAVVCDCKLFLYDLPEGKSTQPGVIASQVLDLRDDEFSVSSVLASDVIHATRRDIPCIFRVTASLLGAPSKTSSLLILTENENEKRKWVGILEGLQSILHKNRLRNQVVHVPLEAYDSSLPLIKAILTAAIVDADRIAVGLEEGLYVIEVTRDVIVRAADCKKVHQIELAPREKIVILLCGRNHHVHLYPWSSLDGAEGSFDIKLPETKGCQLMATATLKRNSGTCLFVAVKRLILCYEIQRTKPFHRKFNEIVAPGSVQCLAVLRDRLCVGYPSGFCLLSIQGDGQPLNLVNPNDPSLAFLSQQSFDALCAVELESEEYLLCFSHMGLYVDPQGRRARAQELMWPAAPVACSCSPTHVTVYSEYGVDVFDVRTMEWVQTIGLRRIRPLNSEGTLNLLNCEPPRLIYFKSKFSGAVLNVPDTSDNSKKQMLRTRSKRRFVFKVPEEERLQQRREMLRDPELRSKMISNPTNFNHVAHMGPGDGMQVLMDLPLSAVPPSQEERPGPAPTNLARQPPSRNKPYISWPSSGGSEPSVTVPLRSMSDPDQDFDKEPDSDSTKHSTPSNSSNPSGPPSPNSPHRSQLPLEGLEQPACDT
Sequence of DAPK2 (Q9UIK4 whole entry): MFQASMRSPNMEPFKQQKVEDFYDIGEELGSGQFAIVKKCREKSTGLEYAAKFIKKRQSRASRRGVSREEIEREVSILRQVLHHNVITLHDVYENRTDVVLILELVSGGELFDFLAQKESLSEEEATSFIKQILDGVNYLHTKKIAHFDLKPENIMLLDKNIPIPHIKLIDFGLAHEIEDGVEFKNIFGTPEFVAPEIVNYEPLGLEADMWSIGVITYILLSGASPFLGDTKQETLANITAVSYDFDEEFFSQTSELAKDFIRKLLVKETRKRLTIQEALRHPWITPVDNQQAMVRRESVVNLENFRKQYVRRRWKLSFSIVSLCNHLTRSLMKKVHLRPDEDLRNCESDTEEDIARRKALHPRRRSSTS
Sequence of SRMS (Q9H3Y6 whole entry): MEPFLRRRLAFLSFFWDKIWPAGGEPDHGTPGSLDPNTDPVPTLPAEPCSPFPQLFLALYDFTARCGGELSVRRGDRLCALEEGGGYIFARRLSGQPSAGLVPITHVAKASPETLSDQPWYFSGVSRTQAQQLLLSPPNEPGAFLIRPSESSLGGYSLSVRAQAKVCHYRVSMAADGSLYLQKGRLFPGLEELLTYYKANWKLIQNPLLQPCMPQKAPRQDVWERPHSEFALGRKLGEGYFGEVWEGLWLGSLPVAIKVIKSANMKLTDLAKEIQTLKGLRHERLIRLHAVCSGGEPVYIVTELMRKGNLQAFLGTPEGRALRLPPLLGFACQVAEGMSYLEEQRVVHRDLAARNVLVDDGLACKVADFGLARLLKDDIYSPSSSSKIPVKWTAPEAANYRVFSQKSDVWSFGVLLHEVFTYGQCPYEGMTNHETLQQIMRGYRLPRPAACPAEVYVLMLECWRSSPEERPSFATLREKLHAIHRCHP

Compound: NC(=O)c1cccc2cn(-c3ccc([C@@H]4CCCNC4)cc3)nc12 [Niraparib]
percent of control binding at 10 µM (MET(Y1235D); [2]): 75%
percent of control binding at 10 µM (SRMS; [2]): 100%
percent of control binding at 10 µM (MRCKB; [2]): 98%
percent of control binding at 10 µM [1, 2]: 65%
percent of control binding at 10 µM (DMPK; [2]): 90%
percent of control binding at 10 µM (FLT3(K663Q); [2]): 75%
percent of control binding at 10 µM (WNK3; [2]): 100%
percent of control binding at 10 µM (DAPK2; [2]): 81%

percent of control binding at 10 µM (MET(Y1235D); [3]): 92%
percent of control binding at 10 µM (SRMS; [3]): 79%
percent of control binding at 10 µM (MRCKB; [3]): 100%
percent of control binding at 10 µM [1, 3]: 68%
percent of control binding at 10 µM (DMPK; [3]): 100%
Rucaparib / %Ctrl @ 10000nM (FLT3(K663Q); binding competition, % of control): 93%
percent of control binding at 10 µM (WNK3; [3]): 86%
percent of control binding at 10 µM (DAPK2; [3]): 37%
Compound: CNCc1ccc(-c2[nH]c3cc(F)cc4c3c2CCNC4=O)cc1 [Rucaparib]

percent of control binding at 10 µM (MET(Y1235D); [4]): 82%
percent of control binding at 10 µM (SRMS; [4]): 92%
percent of control binding at 10 µM (MRCKB; [4]): 100%
percent of control binding at 10 µM [1, 4]: 82%
percent of control binding at 10 µM (DMPK; [4]): 98%
percent of control binding at 10 µM (FLT3(K663Q); [4]): 88%
percent of control binding at 10 µM (WNK3; [4]): 88%
percent of control binding at 10 µM (DAPK2; [4]): 100%
Compound: O=C(c1cc(Cc2n[nH]c(=O)c3ccccc23)ccc1F)N1CCN(C(=O)C2CC2)CC1 [Olaparib]

percent of control binding at 10 µM (MET(Y1235D); [5]): 96%
percent of control binding at 10 µM (SRMS; [5]): 100%
percent of control binding at 10 µM (MRCKB; [5]): 100%
percent of control binding at 10 µM [1, 5]: 92%
percent of control binding at 10 µM (DMPK; [5]): 83%
percent of control binding at 10 µM (FLT3(K663Q); [5]): 91%
percent of control binding at 10 µM (WNK3; [5]): 100%
percent of control binding at 10 µM (DAPK2; [5]): 95%
Compound: Cn1ncnc1[C@H]1c2n[nH]c(=O)c3cc(F)cc(c23)N[C@@H]1c1ccc(F)cc1 [Talazoparib]
